Experimental data taken from patent publication US12121514B2, “Nonselective metabotropic glutamate receptor activators for treatment of attention deficit disorder and 22Q syndrome” (THE CHILDREN'S HOSPITAL OF PHILADELPHIA, priority 2015, dated 2024).

Key:
[1] = system: adolescent subjects with ADHD and at least one genetic alteration in an mGluR network gene; test: Actigraphy, Phase Ib trial of NFC-1; type: in vivo, human
From the text: Actigraphy is non-invasive monitoring of human rest/activity cycles, using an actigraph worn by the patient to document body movements. Actigraphs can be worn during school, for example, to measure activity levels. Actigraphy analysis can measure changes in sleep and hyperactivity that may be seen with treatment for ADHD.
All efficacy assessments, except actigraphy, were made at study enrollment (“enrollment baseline”) and again, including actigraphy, once-per-week for the placebo week (“week 1” or “placebo baseline”) and at each of the 4 weeks of NFC-1 treatment. These efficacy measures include items 1-18 of the Vanderbilt scale assessing symptoms related to inattentiveness and hyperactivity-impulsiveness as well as additional questions 19-47 of the Vanderbilt scale assessing other behavioral symptoms (conducted by parent), actigraphy for quantitative measurement of activity, Quotient® ADHD test for objective measurement of micro-motion and shifts in attention state, PERMP-Math test, and CGI-I and CGI-S for assessment of global functioning. […]

[2] = system: ADHD subjects with anxiety; test: Vanderbilt anxiety items 41, 42 and 47, Phase Ib trial of NFC-1; type: in vivo, human; settings: two subjects with scores of 3 on 2 of the 3 items at enrollment; week 5
From the text: The Vanderbilt Rating Scale is a measure that can be completed by parents or teachers (separate forms, see Vanderbilt Rating Scale Parents and Vanderbilt Rating Scale Teachers). The Vanderbilt scale rates the child's behavior on items such as attention, finishing tasks, hyperactivity, difficulty waiting, and measures of conduct or oppositional defiant disorders—as well as measures of overall school performance and interactions with others. The first 18 items on the Vanderbilt scale correspond to those of the ADHD Rating Scale IV above while the Vanderbilt scale also includes items 19-47 related to other mental disorders including ODD (items 19-26), conduct disorder (items 27-40), anxiety (items 41, 42, and 47), and depression (items 43-46). Each of the behavioral assessment items on the Vanderbilt Scale are rated 0, 1, 2, or 3, with 0=never occurring; 1=occasionally, 2=often, and 3=very often. Thus, the ADHD Rating Scale IV, ADHD Rating Scale V, and items 1-18 of the Vanderbilt Rating Scale are equivalent scales, while additional items on the Vanderbilt Scale assess co-morbid phenotypes and disorders.
Two subjects had maximum scores of 3 on 2 of the 3 Vanderbilt items 41, 42, and 47 that are related to anxiety at enrollment. […] One of those subjects also scored 3 on 3 of the 4 Vanderbilt items related to depression (items 43-46) at enrollment and scored 3 on all 4 items at week 1.

## O=C1CC[C@H](C(=O)N2CCCCC2)N1 [NFC-1, fasoracetam monohydrate]
[1]; 400 mg bid in comparison with placebo, P<0.001
  bursts of medium/high intensity movements (actigraphy): significant reduction
[1]; week 1 (placebo) to week 5, genetic Tiers 1, 2 and 3
  reduction in moderate to vigorous physical activity (MVPA): most prominent in 400 mg bid dose group
[2]
  scores on Vanderbilt anxiety items 41, 42 and 47: scored 3 on all 3 items
